Experimental data taken from patent US9260504B2, “N- and C-terminal substituted antagonistic analogs of GH-RH” (University of Miami, priority 2008, dated 2016).
Marks after values point to notes of the source that are not given here.

Tests used:
Type in all cases: in vivo
[1] = system: Panc-1 human pancreatic cancer; test: Panc-1 human pancreatic cancer xenografts in nude mice; conditions: 10 μg/day s.c. for 36 days
Description: Panc-1 cancers were transplanted s.c. into both flank areas of 60 female nude mice, and allowed to grow for 105 days before starting the treatment with GH-RH antagonists. The mice were randomly assigned into 3 experimental groups with 8 animals in each group and received single daily injections for 36 days as follows: 1. Control (vehicle solution); 2. JMR-132 (10 μg/day s.c.); 3. Peptide 11457 (10 μg/day s.c.). Tumor volumes were measured once a week. The experiment was ended on day 82 by sacrificing the mice under Isoflurane anesthesia. Resulting tumors were cleaned, weighed, and snap-frozen until further analyses. Statistical analyses of the measurement results were done by two-tailed t-test, p<0.05 being considered significant. Data are presented as the means±S.E.

[2] = system: H-460 human non-small cell lung cancer; test: H-460 human non-SCLC xenografts in nude mice, Experiment 3; conditions: 10 μg/day s.c., 28 days
Description: (§1) Male nude mice were implanted s.c. with 3 mm^3 pieces of H-460 human non-SCLC tumor tissue on both flanks. When tumors had grown to a mean volume of approximately 90 mm^3, the mice were randomly assigned into 8 experimental groups with 8 to 10 animals in each group and received single daily injections for 28 days as follows: 1. Control (vehicle solution); 2. JMR-132 (10 μg/day s.c.); 3. Peptide 11123 (5 μg/day s.c.); 4. Peptide 11125 (5 μg/day s.c.); 5. Peptide 11307 (5 μg/day s.c.); 6. Peptide 11317 (5 μg/day s.c.); 7. Peptide 11473 (5 μg/day s.c.); 8. Peptide 11485 (5 μg/day s.c.). Tumor volumes were measured once a week. The experiment was ended on day 28 by sacrificing the mice under Isoflurane anesthesia. Resulting tumors were cleaned, weighed, and snap-frozen until further analyses. Statistical analyses of the measurement results were done by two-tailed t-test, p<0.05 being considered significant.

[3] = system: PC-3 human hormone-independent prostate cancer; test: PC-3 human prostate cancer xenografts in nude mice, Experiment 1; conditions: 10 μg/day s.c., daily for 35 days; means±S.E.
Description: Male nude mice were implanted s.c. with 3 mm^3 pieces of PC-3 human hormone-independent prostate cancer tissue on both flanks. When tumors reached a volume of approx. 50 mm^3, the mice were divided into 4 experimental groups with 8 to 10 animals in each group and received single daily injections for 35 days as follows: 1. Control (vehicle solution); 2. JMR-132 (10 μg/day s.c.); 3. Peptide 1109 (10 μg/day s.c.); 4. Peptide 11111 (10 μg/day s.c.); Tumor volumes were measured once a week. The experiment was ended on day 35 by sacrificing the mice under Isoflurane anesthesia. Resulting tumors were cleaned, weighed, and snap-frozen until further analyses. Statistical analyses of the measurement results were done by two-tailed t-test, p<0.05 being considered significant. Data are presented as the means±S.E.

[4] = system: H-460 human non-small cell lung cancer; test: H-460 human non-SCLC xenografts in nude mice, Experiment 1; conditions: 10 μg/day s.c., 28 days; means±S.E.
Description: as §1, with “into 4” for “into 8”, “with” for “with 8 to”, “Peptide 1109 (10” for “Peptide 11123 (5”, “Peptide 11111 (10” for “Peptide 11125 (5 μg/day s.c.); 5. Peptide 11307 (5 μg/day s.c.); 6. Peptide 11317 (5 μg/day s.c.); 7. Peptide 11473 (5 μg/day s.c.); 8. Peptide 11485 (5”, “significant. Data are presented as the means±S.E.” for “significant.”

[5] = system: PC-3 human hormone-independent prostate cancer; test: PC-3 human prostate cancer xenografts in nude mice, Experiment 3; conditions: 10 μg/day s.c., 28 days
Description: Male nude mice were implanted s.c. with 3 mm^3 pieces of PC-3 human hormone-independent prostate cancer tissue on both flanks. When tumors reached a volume of approximately 50 mm^3, the mice were divided into 12 experimental groups with 8 to 10 animals in each group and received single daily injections for 28 days as follows: 1. Control (vehicle solution); 2. JMR-132 (10 μg/day s.c.); 3. Peptide 11113 (2 μg/day s.c.); 4. Peptide 11119 (2 μg/day s.c.); 5. Peptide 11209 (2 μg/day s.c.); 6. Peptide 11313 (2 μg/day s.c.); 7. Peptide 11408 (2 μg/day s.c.); 8. Peptide 11435 (2 μg/day s.c.); 9. Peptide 11457 (2 μg/day s.c.); 10. Peptide 11459 (2 μg/day s.c.); 11. Peptide 11469 (2 μg/day s.c.); 12. Peptide 11491 (2 μg/day s.c.).
Tumor volumes were measured once a week. The experiment was ended on day 28 by sacrificing the mice under Isoflurane anesthesia. Resulting tumors were cleaned, weighed, and snap-frozen until further analyses. Statistical analyses of the measurement results were done by two-tailed t-test, p<0.05 being considered significant.

[6] = system: SK-Hep-1 human hepatocellular cancer; test: SK-Hep-1 human hepatocellular cancer xenografts in nude mice; conditions: 10 μg/day s.c.
Description: SK-Hep-1 cancers were transplanted s.c. into both flank areas of 66 female nude mice, and allowed to grow for 47 days before starting the treatment with GH-RH antagonists. The mice were randomly assigned into 4 experimental groups with 8 animals in each group and received single daily injections for 135 days as follows: 1. Control (vehicle solution); 2. JMR-132 (10 μg/day s.c.); 3. Peptide 1109 (5 μg/day s.c.); 4. Peptide 1109 (10 μg/day s.c.). Tumor volumes were measured once a week. The experiment was ended on day 135 by sacrificing the mice under Isoflurane anesthesia. Resulting tumors were cleaned, weighed, and snap-frozen until further analyses. Statistical analyses of the measurement results were done by two-tailed t-test, p<0.05 being considered significant. Data are presented as the means±S.E.

“[PhAc^0-Tyr^1, D-Arg^2, Cpa^6, Ala^8, Har^9, Tyr(Me)^10, His^11, Abu^15, His^20, Nle^27, D-Arg^28, Har^29]hGH-RH(1-29)NH2 [JMR-132, reference compound]” was tested, and the “Tumor weights” value ([1]; end of experiment day 82) was 185 ± 105 mg, the “Tumor growth from day 1 to day 82 (%)” value ([1]; means±S.E.) was 1730 ± 350% and the “Tumor volume on day 82 (mm^3)” value ([1]; means±S.E.) was 511 ± 221* mm^3. For the same substance, the “Effect on the growth of Panc-1 human pancreatic cancers” value ([1]; observed for at least 82 days) was “less effective”, the “Tumor growth inhibition after 4 weeks (%)” value [2] was 15.37% and the “Tumor growth after 5 weeks (%)” value [3] was 2820 ± 498%. For the same substance, the “Tumor growth after 4 weeks (%)” value [4] was 2404 ± 604%, the “Tumor growth inhibition after 4 weeks (%)” value [5] was 28.11% and the “Tumors with total regression” value ([6]; 135 days) was 2. For the same substance, the “Tumor volume (mm^3) on day 135” value ([6]; 135 days, means±S.E.) was 615 ± 372 mm^3 and the “Tumor weights (mg)” value ([6]; tumors removed at autopsy) was 1006 ± 569 (7) mg.
